Results reported in patent publication US6806230B1, “Pyrimidine derivatives and herbicides containing them” (Kumiai Chemical Industry Co., Ltd., priority 1999, dated 2004).

Assays:
Assay type in all cases: in vivo
barnyard grass (Eo) = experiment: Test Example 1: herbicidal effects by flooded paddy field treatment; parameters: herbicidal effects, Eo (barnyard grass):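 0-5 growth inhibition grade; 5 = over 90%; 4 = 70-90%; 3 = 50-70%; 2 = 30-50%; 1 = 10-30%; 0 = under 10%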; conditions: dose 100 g active ingredient per 10 ares, examined on the 21st day after treatment, standards of Table 44
Method: (§1) In a 100 cm^2 plastic pot, paddy field soil was filled and paddled. Then, seeds of barnyard grass (Eo) and monochoria (Mo) were sown, and water was introduced to a depth of 3 cm. Next day, a wettable powder prepared in accordance with Formulation Example 1 was diluted with water and dropwise applied to the water surface. The dose was 100 g of the active ingredient per 10 ares. Thereafter, cultivation was carried out in a green house, and on the 21st day after the treatment, the herbicidal effects were examined in accordance with the standards as identified in Table 44.

barnyard grass (Ec) = experiment: Test Example 2: herbicidal effects by upland soil treatment; parameters: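 0-5 growth inhibition grade; 5 = over 90%; 4 = 70-90%; 3 = 50-70%; 2 = 30-50%; 1 = 10-30%; 0 = under 10%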; conditions: dose 100 g active ingredient per 10 ares, examined on the 21st day after treatment
Method: In a 80 cm^2 plastic pot, upland soil was filled, and seeds of barnyard grass (Ec) and green foxtail (Se) were sown and covered with soil. A wettable powder prepared in accordance with Formulation Example 1 was diluted with water and uniformly applied to the soil surface by means of a small size spray at a rate of 100 l per 10 ares, so that the dose of the active ingredient would be 100 g per 10 ares. Thereafter, cultivation was carried out in a green house, and on the 21st day after the treatment, the herbicidal effects were examined in accordance with the standards as identified in Table 44.

monochoria (Mo) = experiment: Test Example 1: herbicidal effects by flooded paddy field treatment; parameters: herbicidal effects, Mo (monochoria):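 0-5 growth inhibition grade; 5 = over 90%; 4 = 70-90%; 3 = 50-70%; 2 = 30-50%; 1 = 10-30%; 0 = under 10%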; conditions: dose 100 g active ingredient per 10 ares, examined on the 21st day after treatment, standards of Table 44
Method: as §1

SMILES	herbicidal effects, Eo (barnyard grass) (barnyard grass (Eo))	Ec (herbicidal effects, index) (barnyard grass (Ec))	herbicidal effects, Mo (monochoria) (monochoria (Mo))
CN(C(=O)Cc1cccc(F)c1)C(c1ccccc1)c1cncnc1C(F)(F)F (racemic) [Compound 1-266]	5	5	5
CC(NC(=O)N(C)C(c1cncnc1C(F)(F)F)C(C)C)c1ccccc1 (mixture of isomers) [1-535]	5	5	5
CC(C)CC(c1cncnc1C(F)(F)F)N(C)C(=O)Cc1ccsc1 (racemic) [2-52]	5	5	5
Cc1ccccc1C(c1cncnc1C(F)(F)F)N(C)C(=O)Cc1ccccc1 (racemic) [1-550]	5	5	5
CCc1ncncc1C(C(C)C)N(C)C(=O)Cc1ccc(F)cc1 (racemic) [1-433]	5	5	5
CN(C(=O)Cc1cccc(F)c1)C(c1cncnc1C(F)(F)F)C(C)(C)C (racemic) [Compound 1-265]	5	5	5
CN(C(=O)Cc1ccc(Cl)cc1F)C(c1cncnc1C(F)(F)F)C(C)(C)C (racemic) [Compound 1-249]	5	5	5
CC(C)c1ncncc1C(C(C)C)N(C)C(=O)Cc1ccsc1 (racemic) [2-24]	5	5	5
CCOC(OCC)C(c1cncnc1C(C)C)N(C)C(=O)OCc1ccccc1 (racemic) [1-458]	5	5	5
CCN(C(=O)Cc1ccsc1)C(c1cncnc1C(F)(F)F)C(C)C (racemic) [2-10]	5	5	5
CSCC(c1cncnc1C(F)(F)F)N(C)C(=O)Cc1ccc(Cl)cc1 (racemic) [1-414]	5	4	5
CC(C)c1ncncc1C(C(C)C)N(C)C(=O)Cc1ccc(C(F)(F)F)cc1 (racemic) [1-310]	5	5	5
COc1ccc(N(C)C(=O)N(C)C(c2cncnc2C(F)(F)F)C(C)C)cc1 (racemic) [1-460]	5	5	5
CC(C)C(c1cncnc1C=O)N(C)C(=O)Cc1ccc(Cl)cc1 (racemic) [1-524]	5	5	5
COCc1ncncc1C(C(C)C)N(C)C(=O)Cc1ccc(Cl)s1 (racemic) [2-77]	5	5	5
CC(C)c1ncncc1C(C(C)C)N(C)C(=O)N(C)c1ccc(F)cc1 (racemic) [1-429]	5	5	5
CC(C)C(c1cncnc1C=NO)N(C)C(=O)Cc1ccc(Cl)cc1 (racemic) [1-502]	5	4	5

SMILES	herbicidal effects, Eo (barnyard grass) (barnyard grass (Eo))	Ec (herbicidal effects, index) (barnyard grass (Ec))	herbicidal effects, Mo (monochoria) (monochoria (Mo))
CC(C)C(c1cncnc1C(F)(F)F)N(C)C(=O)N(C)C1CCCCC1 (racemic) [2-72]	5	5	5
CN(C(=O)Cc1ccc(F)cc1)C(c1ccc(F)cc1F)c1cncnc1C(F)(F)F (racemic) [1-555]	5	5	5
CC(C)C(c1cncnc1C(F)(F)F)N(C)C(=O)C(=O)c1ccc(Cl)cc1 (racemic) [1-335]	5	5	5
CC(C)c1ncncc1C(C(C)C)N(C)C(=O)N(C)c1ccccc1 (racemic) [1-327]	5	5	5
CC(C)C(c1cncnc1C(F)(F)Cl)N(C)C(=O)Oc1ccc([N+](=O)[O-])cc1 (racemic) [1-640]	5	4	5
CCC(C)C(c1cncnc1C(F)(F)F)N(C)C(=O)Cc1ccc(C(F)(F)F)cc1 (mixture of isomers) [1-307]	5	5	5
CC(C)C(c1cncnc1C(F)(F)F)N(C)C(=O)Cc1cccs1 (racemic) [2-6]	5	5	5
CON=Cc1ncncc1C(C(C)C)N(C)C(=O)Cc1ccc(C)cc1 (racemic) [1-499]	5	5	5
CCC(c1cncnc1C(C)C)N(C)C(=O)Cc1ccc(Cl)cc1 (racemic) [1-438]	5	5	5
CN(C(=O)Cc1ccc(F)cc1F)C(c1cncnc1C(F)(F)F)C(C)(C)C (racemic) [Compound 1-273]	5	5	5
CN(C(=O)Cc1ccc(F)cc1F)C(c1ccccc1)c1cncnc1C(F)(F)F (racemic) [Compound 1-274]	5	5	5
CN(C(=O)Cc1cccs1)C(c1cncnc1C(F)(F)F)C(C)(C)C (racemic) [2-13]	5	5	5
CCN(C(=O)Cc1cccs1)C(c1cncnc1C(F)(F)F)C(C)C (racemic) [2-9]	5	5	5
CC(C)C(c1cncnc1C(F)(F)Cl)N(C)C(=S)Oc1ccccc1 (racemic) [1-641]	5	5	5
CN(C(=O)Cc1ccc(C(F)(F)F)cc1)C(c1cncnc1C(F)(F)F)C(C)(C)C (racemic) [1-305]	5	5	5
CCOC(=O)CN(C(=O)Cc1ccccc1)C(c1cncnc1C(F)(F)F)C(C)C (racemic) [1-476]	5	5	5
